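Cells were grown in 96-well plates and exposed to each compound for 48 hours at five concentrations; endpoints were interpolated linearly between bracketing concentrations, or set to the highest concentration if not reached. Here, GI50 denotes the concentration required for 50% inhibition of growth.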 Calls of active or inactive are those of the source. Rule as the data show it: active = GI50 up to about 1.1 µM and inactive = higher.
Experiments:
Assay in all cases: inhibition of tumour cell growth, NCI panel, 48 h
NCI-H226 = test system: NCI-H226
RPMI-8226 = test system: RPMI-8226
HCT-15 = test system: HCT-15
MDA-MB-231 = test system: MDA-MB-231
Malme-3M = test system: Malme-3M
HCC 2998 = test system: HCC 2998
CCRF-CEM = test system: CCRF-CEM
OVCAR-5 = test system: OVCAR-5
SNB-75 = test system: SNB-75
TK-10 = test system: TK-10
ACHN = test system: ACHN
K562 = test system: K562
A549 = test system: A549
T47D = test system: T47D
NCI-H23 = test system: NCI-H23
UACC-257 = test system: UACC-257
SF-295 = test system: SF-295
CAKI-1 = test system: CAKI-1
SN12C = test system: SN12C
DU-145 = test system: DU-145
OVCAR-4 = test system: OVCAR-4
SW-620 = test system: SW-620
UACC-62 = test system: UACC-62
SK-MEL-5 = test system: SK-MEL-5
PC-3 = test system: PC-3
IGROV-1 = test system: IGROV-1
HOP-62 = test system: HOP-62
EKVX = test system: EKVX
OVCAR-8 = test system: OVCAR-8
MOLT-4 = test system: MOLT-4
SK-OV-3 = test system: SK-OV-3
RXF 393 = test system: RXF 393
HT-29 = test system: HT-29
HL-60 = test system: HL-60
OVCAR-3 = test system: OVCAR-3
MDA-N = test system: MDA-N
SF-268 = test system: SF-268
NCI/ADR-RES = test system: NCI/ADR-RES
HCT-116 = test system: HCT-116
COLO 205 = test system: COLO 205
M14 = test system: M14
NCI-H522 = test system: NCI-H522
KM12 = test system: KM12
U-251 = test system: U-251
LOX IMVI = test system: LOX IMVI
UO-31 = test system: UO-31
SK-MEL-2 = test system: SK-MEL-2
SNB-19 = test system: SNB-19
MCF7 = test system: MCF7
MDA-MB-435 = test system: MDA-MB-435
NCI-H460 = test system: NCI-H460
786-0 = test system: 786-0
HOP-92 = test system: HOP-92
BT-549 = test system: BT-549
SF-539 = test system: SF-539
Hs-578T = test system: Hs-578T
SK-MEL-28 = test system: SK-MEL-28
SR = test system: SR
A498 = test system: A498

In the case of `COC(=O)[C@H](Cc1c[nH]c2ccccc12)NP(=O)(OCCC#N)OCC1OC(n2cc(C)c(=O)[nH]c2=O)CC1N=[N+]=[N-]` (stereo partly specified), the GI50 (NCI-H226) is reported as > 100 µM (inactive), the GI50 (RPMI-8226) is reported as > 100 µM (inactive) and the GI50 (HCT-15) is reported as greater than 100 µM. The GI50 (MDA-MB-231) was > 100 µM (inactive), the GI50 (Malme-3M) was > 100 µM (inactive) and the GI50 (HCC 2998) was > 100 µM (inactive). The GI50 (CCRF-CEM) was > 100 µM (inactive), the GI50 (OVCAR-5) was > 100 µM (inactive) and the GI50 (SNB-75) was > 100 µM (inactive). For the same molecule, the GI50 (TK-10) was > 100 µM (inactive), the GI50 (ACHN) was 50.8 µM (inactive) and the GI50 (K562) was > 100 µM (inactive). The GI50 (A549) was > 100 µM (inactive), the GI50 (T47D) was > 100 µM (inactive) and the GI50 (NCI-H23) was > 100 µM (inactive). The GI50 (UACC-257) was > 100 µM (inactive), the GI50 (SF-295) was > 100 µM (inactive) and the GI50 (CAKI-1) was > 100 µM (inactive). For the same molecule, the GI50 (SN12C) was > 100 µM (inactive), the GI50 (DU-145) was > 100 µM (inactive) and the GI50 (OVCAR-4) was > 100 µM (inactive). For the same molecule, the GI50 (SW-620) was > 100 µM (inactive), the GI50 (UACC-62) was > 100 µM (inactive) and the GI50 (SK-MEL-5) was > 100 µM (inactive). The GI50 (PC-3) was > 100 µM (inactive), the GI50 (IGROV-1) was > 100 µM (inactive) and the GI50 (HOP-62) was > 100 µM (inactive). The GI50 (EKVX) was > 100 µM (inactive), the GI50 (OVCAR-8) was > 100 µM (inactive) and the GI50 (MOLT-4) was > 100 µM (inactive). For the same molecule, the GI50 (SK-OV-3) was > 100 µM (inactive), the GI50 (RXF 393) was > 100 µM (inactive) and the GI50 (HT-29) was > 100 µM (inactive). For the same molecule, the GI50 (HL-60) was > 100 µM (inactive), the GI50 (OVCAR-3) was > 100 µM (inactive) and the GI50 (MDA-N) was > 100 µM (inactive). For the same molecule, the GI50 (SF-268) was > 100 µM (inactive), the GI50 (NCI/ADR-RES) was > 100 µM (inactive) and the GI50 (HCT-116) was > 100 µM (inactive). For the same molecule, the GI50 (COLO 205) was > 100 µM (inactive), the GI50 (M14) was > 100 µM (inactive) and the GI50 (NCI-H522) was > 100 µM (inactive). The GI50 (KM12) was > 100 µM (inactive), the GI50 (U-251) was > 100 µM (inactive) and the GI50 (LOX IMVI) was > 100 µM (inactive). The GI50 (UO-31) was > 100 µM (inactive), the GI50 (SK-MEL-2) was > 100 µM (inactive) and the GI50 (SNB-19) was > 100 µM (inactive). The GI50 (MCF7) was > 100 µM (inactive), the GI50 (MDA-MB-435) was > 100 µM (inactive) and the GI50 (NCI-H460) was > 100 µM (inactive). The GI50 (786-0) was > 100 µM (inactive), the GI50 (HOP-92) was > 100 µM (inactive) and the GI50 (BT-549) was > 100 µM (inactive).

With `CCN(CC)CCNc1n[n+]([O-])c2ccccc2[n+]1[O-]` the GI50 (NCI-H226) was 7.21 µM (inactive), the GI50 (RPMI-8226) was 4.48 µM (inactive) and the GI50 (HCT-15) was 3.92 µM. For the same molecule, the GI50 (Malme-3M) was 6.76 µM (inactive), the GI50 (HCC 2998) was 2.07 µM (inactive) and the GI50 (CCRF-CEM) was 3.91 µM (inactive). The GI50 (OVCAR-5) was 13.2 µM (inactive), the GI50 (TK-10) was 11.3 µM (inactive) and the GI50 (ACHN) was 2.95 µM (inactive). For the same molecule, the GI50 (K562) was 1.72 µM (inactive), the GI50 (SF-539) was 9.27 µM (inactive) and the GI50 (T47D) was 5.18 µM (inactive). The GI50 (SF-295) was 7.93 µM (inactive), the GI50 (SN12C) was 3.91 µM (inactive) and the GI50 (DU-145) was 12.1 µM (inactive). The GI50 (SW-620) was 12 µM (inactive), the GI50 (UACC-62) was 4.8 µM (inactive) and the GI50 (SK-MEL-5) was 1.59 µM (inactive). The GI50 (PC-3) was 5.78 µM (inactive), the GI50 (IGROV-1) was 1.81 µM (inactive) and the GI50 (HOP-62) was 5.11 µM (inactive). For the same molecule, the GI50 (EKVX) was 12.7 µM (inactive), the GI50 (OVCAR-8) was 7.76 µM (inactive) and the GI50 (MOLT-4) was 2.02 µM (inactive). For the same molecule, the GI50 (SK-OV-3) was 4 µM (inactive), the GI50 (RXF 393) was 4.65 µM (inactive) and the GI50 (HT-29) was 5.94 µM (inactive). For the same molecule, the GI50 (Hs-578T) was 28.6 µM (inactive), the GI50 (HL-60) was 1.85 µM (inactive) and the GI50 (OVCAR-3) was 7.21 µM (inactive). The GI50 (MDA-N) was 9.73 µM (inactive), the GI50 (SF-268) was 10.7 µM (inactive) and the GI50 (NCI/ADR-RES) was 22.9 µM (inactive). For the same molecule, the GI50 (HCT-116) was 7.73 µM (inactive), the GI50 (COLO 205) was 5.96 µM (inactive) and the GI50 (M14) was 6.7 µM (inactive). The GI50 (KM12) was 9.2 µM (inactive), the GI50 (U-251) was 12.8 µM (inactive) and the GI50 (SK-MEL-28) was 39.4 µM (inactive). For the same molecule, the GI50 (LOX IMVI) was 9.86 µM (inactive), the GI50 (UO-31) was 19 µM (inactive) and the GI50 (SNB-19) was 13.5 µM (inactive). For the same molecule, the GI50 (MDA-MB-435) was 12.5 µM (inactive), the GI50 (786-0) was 7.85 µM (inactive) and the GI50 (BT-549) was 16.4 µM (inactive).

With `O=C1NC(=S)N/C1=C/c1c(-c2ccccc2)[nH]c2ccccc12` the GI50 (NCI-H226) was 16.3 µM (inactive), the GI50 (RPMI-8226) was 8.73 µM (inactive) and the GI50 (HCT-15) was 14.7 µM. For the same molecule, the GI50 (MDA-MB-231) was 13.7 µM (inactive), the GI50 (SR) was 6.32 µM (inactive) and the GI50 (Malme-3M) was 13.5 µM (inactive). For the same molecule, the GI50 (HCC 2998) was 21.1 µM (inactive), the GI50 (OVCAR-5) was 17.9 µM (inactive) and the GI50 (SNB-75) was 15.3 µM (inactive). The GI50 (TK-10) was 15.8 µM (inactive), the GI50 (ACHN) was 17.4 µM (inactive) and the GI50 (K562) was 10.1 µM (inactive). The GI50 (SF-539) was 17.4 µM (inactive), the GI50 (NCI-H23) was 14.1 µM (inactive) and the GI50 (UACC-257) was 15.6 µM (inactive). For the same molecule, the GI50 (SF-295) was 12.8 µM (inactive), the GI50 (CAKI-1) was 18.2 µM (inactive) and the GI50 (SN12C) was 18.5 µM (inactive). The GI50 (OVCAR-4) was 16.1 µM (inactive), the GI50 (SW-620) was 17.1 µM (inactive) and the GI50 (UACC-62) was 11.7 µM (inactive). The GI50 (SK-MEL-5) was 13 µM (inactive), the GI50 (PC-3) was 12.9 µM (inactive) and the GI50 (IGROV-1) was 13.8 µM (inactive). The GI50 (HOP-62) was 15.5 µM (inactive), the GI50 (EKVX) was 14.5 µM (inactive) and the GI50 (OVCAR-8) was 14.4 µM (inactive). For the same molecule, the GI50 (MOLT-4) was 12.4 µM (inactive), the GI50 (RXF 393) was 15.3 µM (inactive) and the GI50 (HT-29) was 16.3 µM (inactive). The GI50 (Hs-578T) was 16.6 µM (inactive), the GI50 (HL-60) was 7.31 µM (inactive) and the GI50 (OVCAR-3) was 16.1 µM (inactive). For the same molecule, the GI50 (MDA-N) was 14.9 µM (inactive), the GI50 (SF-268) was 25.7 µM (inactive) and the GI50 (NCI/ADR-RES) was 18.6 µM (inactive). The GI50 (HCT-116) was 14.3 µM (inactive), the GI50 (COLO 205) was 17.9 µM (inactive) and the GI50 (NCI-H522) was 13.2 µM (inactive). The GI50 (KM12) was 14.6 µM (inactive), the GI50 (U-251) was 15.7 µM (inactive) and the GI50 (SK-MEL-28) was 16.6 µM (inactive). For the same molecule, the GI50 (LOX IMVI) was 10.9 µM (inactive), the GI50 (A498) was 11.4 µM (inactive) and the GI50 (UO-31) was 9.23 µM (inactive). The GI50 (SK-MEL-2) was 13.2 µM (inactive), the GI50 (SNB-19) was 16.5 µM (inactive) and the GI50 (MCF7) was 15.2 µM (inactive). For the same molecule, the GI50 (MDA-MB-435) was 13.7 µM (inactive), the GI50 (NCI-H460) was 12.9 µM (inactive) and the GI50 (786-0) was 14 µM (inactive). The GI50 (BT-549) was 12.6 µM (inactive).

Source: ChEMBL document CHEMBL1201862, “PubChem BioAssay data set” (2004)
